# Measured values as given in article PMC8448864, “Prolyl isomerase Pin1 plays an essential role in SARS-CoV-2 proliferation, indicating its possibility as a novel therapeutic target” (Scientific Reports, 2021).
# Read-outs that look alike come from different tables or passages of the source.
# What was measured:
# SARS-CoV-2 [1] = assay: Membrane fusion (CPE, syncytium formation) and fusion index of infected VeroE6/TMPRSS2 cells; type: cell-based; conditions: for Membrane fusion (CPE caused by viral infection): MOI 0.01, 24 h
# Method: Figure 2 Pin1 inhibitor H-77 inhibits SARS-CoV-2 proliferation in a concentration-dependent manner. VeroE6/TMPRSS2 cells were pretreated with the indicated concentrations of H-77 for 2 h, and were subjected to SARS-CoV-2 infection (MOI of 0.01) followed by incubation for 24 h in the presence of the same concentrations of H-77. (A) Western blotting of cell lysates (Duplicate in the figure) with SARS-CoV-2 N, Pin1, and actin antibodies. Full-length blots are presented in Supplementary Fig. 4. (B) vRNA copies contained in 5 µL of the supernatant were quantified by RT-qPCR using authorized SARS-CoV-2 N primers (n = 3). (C) Fusion index calculated by counting numbers of cells and nuclei of infected cells after Giemsa straining. Approximately 100 nuclei and cell number per field were counted for each of five fields. Error bars indicate standard deviation. *P < 0.05, **P < 0.01, Mann–Whitney U test, compared with 0 µM (DMSO). (D) Representative images of SARS-CoV-2-infected VeroE6/TMPRSS2 cells at 24 h post-infection with the indicated concentrations of H-77.
# The cells were then washed with PBS, fixed with methanol, and stained with Giemsa staining solution. The fusion index was calculated as [1-(number of cells/number of nuclei)] as described previously. Approximately 100 nuclei and cell number per field were counted, and the average fusion index of five fields was calculated.
# FKBP = system: FKBP; parameters: method as in PMID 25849135; conditions: cited from earlier work
# SARS-CoV-2 [2] = assay: microbe, parasite or virus in culture; type: cell-based; conditions: for EC50: calculated using virus production at different drug concentrations
# Pin1 = system: Pin1; parameters: method as in PMID 25849135; conditions: cited from earlier work
# cyclophilin = system: cyclophilin; parameters: method as in PMID 25849135; conditions: cited from earlier work
# recombinant Pin1 protein = recombinant Pin1 protein (Homo sapiens, UniProt Q13526); assay: In vitro PPIase assay using recombinant Pin1 protein (method of Janowski et al., Eurofins Selcia); type: biochemical; conditions: for inhibition at 2 µM: concentration 2 µM; for inhibition at 20 µM: concentration 20 µM
# SARS-CoV-2 [3] = type: cell-based; conditions: for SARS-CoV-2 proliferation: MOI 0.01, harvested 24 h after infection
# [4] = Severe acute respiratory syndrome coronavirus 2, VeroE6/TMPRSS2, read-out: EC50 (50% effective concentration, SARS-CoV-2 proliferation), VeroE6/TMPRSS2 cells
# [5] = 10 µM from 2 h before infection, 24 h after infection
# [6] = Severe acute respiratory syndrome coronavirus 2, VeroE6/TMPRSS2 cells, read-out: EC50 (50% effective concentration, SARS-CoV-2 proliferation)
# recombinant Pin1 protein, sequence (Q13526 whole entry, species assumed): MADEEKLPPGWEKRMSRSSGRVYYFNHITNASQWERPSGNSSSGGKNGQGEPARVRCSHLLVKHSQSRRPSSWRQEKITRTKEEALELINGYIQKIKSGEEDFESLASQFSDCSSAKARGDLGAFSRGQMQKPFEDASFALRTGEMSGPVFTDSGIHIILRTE
compound,measurement,setting,value
"CC1=C(/C=C/C(C)=C/C=C/C(C)=C/C(=O)O)C(C)(C)CCC1 [ATRA, all-trans retinoic acid, reference compound]",CPE of SARS-CoV-2,SARS-CoV-2 [1]; VeroE6/TMPRSS2 cells,alleviated
same,Activity of FKBP,FKBP,does not affect
same,EC50,SARS-CoV-2 [2]; [4],17.9 µM
same,SARS-CoV-2 protein and viral RNA levels,"SARS-CoV-2 [2]; concentration-dependent, pretreated 2 h, MOI 0.01, 24 h",marked reductions
same,Activity of Pin1,Pin1,inhibits
same,Activity of cyclophilin,cyclophilin,does not affect
O=C(Nc1ccc(OCc2ccccc2)cc1C(=O)O)c1ccc2ccccc2c1 [H-77],Membrane fusion (CPE caused by viral infection),SARS-CoV-2 [1]; concentrations above 7.5 μM,almost absent
same,Membrane fusion (CPE caused by viral infection),SARS-CoV-2 [1]; drug concentration increased to 5 μM,less apparent
same,inhibition at 2 µM,recombinant Pin1 protein,67%
same,inhibition at 20 µM,recombinant Pin1 protein,82%
same,EC50,SARS-CoV-2 [2]; [4],< 5 µM
same,EC50,"SARS-CoV-2 [2]; read-out: EC50 (50% effective concentration, SARS-CoV-2 proliferation), VeroE6/TMPRSS2 cells",3.2 µM
same,SARS-CoV-2 proliferation,SARS-CoV-2 [3]; 10 µM added 2 h after infection,almost completely blocked
same,SARS-CoV-2 proliferation,SARS-CoV-2 [3]; 10 µM added 6 h after infection,weaker but still significant inhibitory effect
same,Amount of genomic RNA released from the cells (vRNA in supernatant),SARS-CoV-2 [3]; [5],significantly reduced
same,Intracellular viral N mRNA,SARS-CoV-2 [3]; [5],significantly reduced
O=C(O)[C@@H](Cc1ccc2ccccc2c1)OC(=O)n1c2ccccc2c2ccccc21 [H-175],inhibition at 20 µM,recombinant Pin1 protein,89%
same,EC50,SARS-CoV-2 [2]; [6],12 µM
O=C(Nc1ccc(OCc2ccccc2)cc1C(=O)O)c1cccc(Oc2ccccc2)c1 [H-363],inhibition at 20 µM,recombinant Pin1 protein,82%
same,EC50,SARS-CoV-2 [2]; [6],6.3 µM
O=C(Nc1ccc(OCc2ccc3ccccc3c2)cc1C(=O)O)c1ccc2ccccc2c1 [H-371],inhibition at 2 µM,recombinant Pin1 protein,80%
same,EC50,SARS-CoV-2 [2]; [6],4.2 µM
O=C(O)c1cc(NC(=O)n2c3ccccc3c3ccccc32)cc(NC(=O)n2c3ccccc3c3ccccc32)c1 [H-596],inhibition at 1 µM,recombinant Pin1 protein; concentration 1 µM,13%
same,inhibition at 10 µM,recombinant Pin1 protein; concentration 10 µM,101%
same,EC50,SARS-CoV-2 [2]; [6],5.2 µM
O=C1C=CC(=O)c2c(O)cccc21 [Juglone],Cell survival,VeroE6/TMPRSS2 cells,unable to survive
